Patent publication US11214803B2, “Modulators of YAP1 expression” (Ionis Pharmaceuticals, Inc., priority 2019, dated 2022)
Strand notation (5' to 3'): a small letter for the sugar, then the base; units joined by * are phosphorothioate-linked, units joined directly phosphodiester-linked; [ ] holds rarer units or linkages, { } end groups; capitals alone tell only the bases. k = constrained ethyl (cEt); [5mC] = 5-methylcytosine; d = 2'-deoxy (DNA)

Each substance was assayed on Yap1 mRNA (assay: Antisense inhibition of human Yap1 in A-431 cells by cEt gapmers, single dose (Example 3, RTS36584)). Conditions: Table 8; A-431 cells, 5,000 cells per well, free uptake, 2,000 nM, approximately 48 hours; RTS36584; normalized to RIBOGREEN; Yap1 mRNA relative to untreated control cells.
Format: cell-based
Summary of the method: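 Read-out is Yap1 mRNA as percent of untreated control, by quantitative RT-PCR normalized to total RNA (RiboGreen). Cells (A-431) received 2,000 nM of 3-10-3 cEt phosphorothioate gapmer via free uptake for roughly 48 hours.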

Substance | YAP1 (% UTC)
958403 (antisense k[5mC]*kA*kG*dT*dT*dT*dA*dT*dG*dT*dA*dG*dT*kA*kG*kT) [Compound 958403] | 5 % UTC
958354 (antisense kG*kT*k[5mC]*dG*dG*dT*d[5mC]*dT*d[5mC]*d[5mC]*dG*dA*dG*kT*k[5mC]*k[5mC]) [Compound 958354] | 31 % UTC
958351 (kT*k[5mC]*kT*d[5mC]*d[5mC]*dG*dA*dG*dT*d[5mC]*d[5mC]*d[5mC]*d[5mC]*kG*k[5mC]*kG; antisense) [Compound 958351] | 67 % UTC
958394 (antisense kT*kT*kG*dA*dA*dA*d[5mC]*d[5mC]*dT*dG*dA*dT*d[5mC]*k[5mC]*kT*kT) [Compound 958394] | 54 % UTC
958419 (antisense kT*kA*kA*dG*dA*dG*d[5mC]*d[5mC]*dT*dA*d[5mC]*d[5mC]*dT*kG*kA*k[5mC]) [Compound 958419] | 68 % UTC
958373 (antisense kA*kG*kG*dT*dG*d[5mC]*dT*dA*dG*d[5mC]*dT*dG*dG*kT*kG*k[5mC]) [Compound 958373] | 8 % UTC

Same assay, conditions: Table 9; A-431 cells, 5,000 cells per well, free uptake, 2,000 nM, approximately 48 hours; RTS36584; normalized to RIBOGREEN; Yap1 mRNA relative to untreated control cells

Substance | YAP1 (% UTC)
958766 (antisense kT*kA*kA*d[5mC]*dA*dT*dA*dT*dG*dT*d[5mC]*dT*dA*k[5mC]*kT*k[5mC]) [Compound 958766] | 23 % UTC
958636 (antisense k[5mC]*k[5mC]*kG*d[5mC]*dA*d[5mC]*d[5mC]*dG*d[5mC]*dG*dG*d[5mC]*d[5mC]*k[5mC]*kG*kG) [Compound 958636] | 126 % UTC
958816 (kG*kT*kG*dA*dT*dA*dA*d[5mC]*dA*dT*dA*dT*d[5mC]*k[5mC]*k[5mC]*kA; antisense) [Compound 958816] | 71 % UTC
958451 (antisense k[5mC]*kA*k[5mC]*dG*dA*dT*d[5mC]*dT*dG*dA*dT*dG*d[5mC]*k[5mC]*k[5mC]*kG) [Compound 958451] | 10 % UTC
958496 (k[5mC]*k[5mC]*kT*dT*dA*dT*dA*dA*dG*d[5mC]*dT*d[5mC]*d[5mC]*kT*kA*kA; antisense) [Compound 958496] | 3 % UTC
958736 (antisense kG*kT*kG*dA*dT*dA*dT*dG*dG*dA*dT*dT*d[5mC]*kT*kG*kT) [Compound 958736] | 3 % UTC
958441 (antisense kG*k[5mC]*kG*dA*d[5mC]*dG*dG*d[5mC]*dT*dG*d[5mC]*dG*dG*kG*k[5mC]*k[5mC]) [Compound 958441] | 72 % UTC

Same assay, conditions: Table 10; A-431 cells, 5,000 cells per well, free uptake, 2,000 nM oligonucleotide, approx. 48 hours; primer probe set RTS36584; Yap1 mRNA normalized to RIBOGREEN, percent of untreated control

Substance | YAP1 (% UTC)
958542 (kT*kA*kT*dA*dG*dT*dA*dT*dT*d[5mC]*dT*dA*dT*k[5mC]*k[5mC]*kA; antisense) [Compound 958542] | 4 % UTC
958667 (kT*kG*k[5mC]*d[5mC]*dG*dG*dG*d[5mC]*d[5mC]*d[5mC]*d[5mC]*dT*dA*kT*kG*k[5mC]; antisense) [Compound 958667] | 80 % UTC
958572 (kA*kT*kT*dA*dT*dA*dG*dG*d[5mC]*dA*d[5mC]*dT*d[5mC]*k[5mC]*kT*kT; antisense) [Compound 958572] | 5 % UTC

Same assay, conditions: Table 11; A-431 cells, 5,000 cells per well, free uptake, 2,000 nM oligonucleotide, approx. 48 hours; primer probe set RTS36584; Yap1 mRNA normalized to RIBOGREEN, percent of untreated control

Substance | YAP1 (% UTC)
958653 (kT*kT*kA*d[5mC]*dA*d[5mC]*dA*d[5mC]*dA*dG*dG*d[5mC]*dT*kA*kT*kG; antisense) [Compound 958653] | 17 % UTC
958703 (antisense kG*kA*kT*dA*dA*d[5mC]*dT*dA*dA*dG*d[5mC]*dA*d[5mC]*kT*kA*k[5mC]) [Compound 958703] | 49 % UTC
958793 (antisense k[5mC]*k[5mC]*kG*d[5mC]*dA*dT*dT*dG*d[5mC]*d[5mC]*dT*dA*dA*kG*kA*kG) [Compound 958793] | 9 % UTC

Same assay, conditions: Table 12; A-431 cells, 5,000 cells per well, free uptake, 2,000 nM modified oligonucleotide, approx. 48 hours; RTS36584; normalized to RIBOGREEN; Yap1 mRNA relative to untreated control cells

Substance | YAP1 (% UTC)
958704 (antisense k[5mC]*k[5mC]*k[5mC]*dT*dA*d[5mC]*dA*d[5mC]*dT*d[5mC]*dG*dA*dG*kG*kA*kT) [Compound 958704] | 122 % UTC
958794 (antisense kT*kT*k[5mC]*d[5mC]*dG*d[5mC]*dA*dT*dT*dG*d[5mC]*d[5mC]*dT*kA*kA*kG) [Compound 958794] | 14 % UTC
958574 (k[5mC]*kT*kG*dG*d[5mC]*dA*dA*dA*dT*dT*dA*dT*dA*kG*kG*k[5mC]; antisense) [Compound 958574] | 13 % UTC
958759 (antisense kG*k[5mC]*k[5mC]*dT*dA*dT*d[5mC]*dG*d[5mC]*d[5mC]*d[5mC]*d[5mC]*dA*kA*kG*k[5mC]) [Compound 958759] | 61 % UTC
958589 (kG*kT*kA*dA*dA*dG*dG*dA*dA*dG*dA*dT*d[5mC]*kT*k[5mC]*k[5mC]; antisense) [Compound 958589] | 4 % UTC

Same assay, conditions: Table 13; A-431 cells, 5,000 cells per well, free uptake, 2,000 nM modified oligonucleotide, approx. 48 hours; RTS36584; normalized to RIBOGREEN; Yap1 mRNA relative to untreated control cells

Substance | YAP1 (% UTC)
958595 (k[5mC]*k[5mC]*kA*d[5mC]*dA*dT*d[5mC]*dA*dA*dG*dG*d[5mC]*dT*kA*kT*kG; antisense) [Compound 958595] | 8 % UTC
958680 (kA*kT*kT*dA*dA*d[5mC]*dA*d[5mC]*d[5mC]*dT*dG*dA*dG*k[5mC]*kT*kG; antisense) [Compound 958680] | 50 % UTC

Same assay, conditions: Table 26; Yap1 mRNA by 3-10-3 cEt gapmers targeting SEQ ID NO.: 1, and 2; percent of untreated control

Substance | YAP1 (% UTC)
1075820 (kT*k[5mC]*kT*dG*dA*dA*d[5mC]*dG*dG*dG*d[5mC]*dT*dG*kT*kT*kG; antisense) [compound 1075820] | 27 % UTC

Same assay, conditions: Table 27; Yap1 mRNA by 3-10-3 cEt gapmers targeting SEQ ID NO.: 1, and 2; percent of untreated control

Substance | YAP1 (% UTC)
1075437 (antisense kT*kA*kT*dT*dA*dG*dT*dA*d[5mC]*dG*dA*dG*d[5mC]*kT*kA*k[5mC]) [compound 1075437] | 85 % UTC
1076365 (antisense kT*kA*kA*dG*dA*dA*dG*dG*dG*d[5mC]*d[5mC]*dA*dA*kT*kG*kG) [compound 1076365] | 15 % UTC

Same assay, conditions: Table 28; Yap1 mRNA as percent of untreated control; 3-10-3 cEt gapmers targeting SEQ ID NO.: 1, and 2

Substance | YAP1 (% UTC)
1075790 (kT*k[5mC]*kA*dG*dA*dA*dG*dA*dA*d[5mC]*dT*d[5mC]*d[5mC]*k[5mC]*kA*kT; antisense) [compound 1075790] | 14 % UTC
1075662 (antisense kA*kA*kG*dG*dG*dA*dT*dA*d[5mC]*dA*dA*dG*dT*kG*kT*kT) [compound 1075662] | 78 % UTC

Same assay, conditions: Table 29; Yap1 mRNA as percent of untreated control; 3-10-3 cEt gapmers targeting SEQ ID NO.: 1, and 2

Substance | YAP1 (% UTC)
1074671 (antisense k[5mC]*kA*kA*dG*dT*dA*dG*d[5mC]*dT*dT*dT*dG*dA*kT*k[5mC]*kT) [compound 1074671] | 8 % UTC
1076239 (kG*kT*kT*dT*dA*dA*dA*dA*dA*dA*dA*dA*d[5mC]*kG*kG*kG; antisense) [compound 1076239] | 75 % UTC
1075375 (antisense k[5mC]*kT*kA*dA*dA*dT*dA*dT*d[5mC]*dA*dA*d[5mC]*dT*k[5mC]*k[5mC]*k[5mC]) [compound 1075375] | 35 % UTC

Same assay, conditions: Table 34; Yap1 mRNA as percent of untreated control; 3-10-3 cEt gapmers targeting SEQ ID NO: 1 and 2; single dose

Substance | YAP1 (% UTC)
1076148 (kT*kA*kT*dT*dA*dA*d[5mC]*dT*d[5mC]*dA*d[5mC]*dG*dA*kA*kG*kA; antisense) [compound 1076148] | 52 % UTC
1075348 (antisense kT*k[5mC]*kA*d[5mC]*dA*dA*dA*dA*d[5mC]*d[5mC]*d[5mC]*dT*dA*k[5mC]*kA*k[5mC]) [compound 1075348] | 96 % UTC
1076180 (kA*kT*kA*dA*dT*dT*dA*dG*d[5mC]*d[5mC]*dA*dA*d[5mC]*k[5mC]*kA*k[5mC]; antisense) [compound 1076180] | 42 % UTC

Same assay, conditions: Table 35; Yap1 mRNA as percent of untreated control; 3-10-3 cEt gapmers targeting SEQ ID NO: 1 and 2; single dose

Substance | YAP1 (% UTC)
1074133 (kG*k[5mC]*kG*dG*d[5mC]*d[5mC]*d[5mC]*d[5mC]*dG*d[5mC]*dA*dT*d[5mC]*k[5mC]*k[5mC]*k[5mC]; antisense) [compound 1074133] | 101 % UTC
1075413 (antisense k[5mC]*kA*kT*dA*dA*d[5mC]*dT*dA*d[5mC]*dA*dT*d[5mC]*dG*kA*k[5mC]*kA) [compound 1075413] | 34 % UTC
